Test results from patent publication US9187497B2, “Substituted pyrido[3,2-e]pyrrolo[1,2-a]pyrazines as inhibitors of poly(ADP-ribose)polymerase (PARP)” (Takeda Phamaceutical Company Limited, priority 2009, dated 2015).

How the values were obtained:
[1] = tested on: Jurkat cell line; experiment: PARP cellular chemopotentiation assay (MTS cell viability with and without TMZ); type: cell-based; details: ratio of EC50 for inhibition of cell viability without and with 100 μM TMZ; Jurkat cells, 96 hours of treatment
Procedure, shortened: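 Jurkat cells, 10,000/well, pre-cultured 24 h, then treated 96 h with serial compound dilutions (0.5% DMSO) with or without 100 μM TMZ. Viability by MTS conversion (OD490), normalized to DMSO controls; EC50 from curve fits, PF50 = EC50 without TMZ / EC50 with TMZ.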

[2] = biological target: T1, PARP (Homo sapiens, UniProt P09874); experiment: PARP ELISA colorimetric assay of inhibition of PARP catalytic activity (IC50); type: biochemical; details: pIC50=-log(IC50), IC50 in molar concentration; ELISA-based PARP kit, 10 minutes of catalysis
T1 construct: purchased Trevigen 4684-096-01 (enzyme); kit 4684-096-K HT
T1 sequence (P09874 whole entry): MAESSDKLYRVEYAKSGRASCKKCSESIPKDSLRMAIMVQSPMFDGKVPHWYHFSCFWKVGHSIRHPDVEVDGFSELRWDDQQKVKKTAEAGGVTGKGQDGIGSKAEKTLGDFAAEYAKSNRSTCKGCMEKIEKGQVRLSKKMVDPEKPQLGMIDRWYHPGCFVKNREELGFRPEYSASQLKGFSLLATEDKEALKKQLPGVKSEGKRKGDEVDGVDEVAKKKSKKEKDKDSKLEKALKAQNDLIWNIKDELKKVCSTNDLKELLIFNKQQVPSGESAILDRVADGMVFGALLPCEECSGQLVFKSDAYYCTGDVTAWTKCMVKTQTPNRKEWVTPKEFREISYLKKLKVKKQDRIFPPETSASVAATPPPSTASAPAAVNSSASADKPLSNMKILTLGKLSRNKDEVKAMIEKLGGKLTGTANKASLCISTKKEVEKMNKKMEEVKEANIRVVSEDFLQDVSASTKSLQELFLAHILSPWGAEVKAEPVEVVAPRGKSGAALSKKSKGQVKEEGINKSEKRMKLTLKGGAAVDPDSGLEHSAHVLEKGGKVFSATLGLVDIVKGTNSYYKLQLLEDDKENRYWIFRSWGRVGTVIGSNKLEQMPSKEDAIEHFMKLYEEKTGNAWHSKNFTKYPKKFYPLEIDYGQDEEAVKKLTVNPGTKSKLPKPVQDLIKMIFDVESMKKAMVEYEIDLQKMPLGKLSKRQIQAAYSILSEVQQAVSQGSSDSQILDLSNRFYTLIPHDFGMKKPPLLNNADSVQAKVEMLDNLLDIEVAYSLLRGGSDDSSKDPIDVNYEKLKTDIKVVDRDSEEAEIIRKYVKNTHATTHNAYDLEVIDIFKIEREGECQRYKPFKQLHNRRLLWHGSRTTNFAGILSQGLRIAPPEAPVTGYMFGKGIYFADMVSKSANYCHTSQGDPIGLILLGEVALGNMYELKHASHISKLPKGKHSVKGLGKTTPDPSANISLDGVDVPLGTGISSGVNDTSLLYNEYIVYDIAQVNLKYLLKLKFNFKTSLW
Procedure: Inhibition Constant (IC50) from PARP ELISA
Inhibition of PARP catalytic activity was determined by use of an ELISA-based colorimetric PARP/Apoptosis Assay kit (part number 4684-096-K HT, Trevigen). To each histone coated well in the 96-well plate supplied by the manufacturer (part number 4677-096-P) is added 39 μl of PARP buffer (part number 4671-096-02) and 1 μl of test compound dissolved in DMSO (diluted serially 3-fold 11 times). After mixing, 5 μl of 0.1 nM PARP (part number 4684-096-01) is added and the solution allowed to stand at ambient temperature for 10 minutes. PARP catalysis is initiated with the addition of 5 μl of 100 μM β-nicotinamide adenine dinucleotide (NAD+) (part number 4684-096-02) with activated DNA (part number 4671-096-06). After 10 minutes of catalysis the reaction is quenched by solvent aspiration followed by irrigation of the assay wells 4 times with phosphate buffered saline (PBS) containing 0.1% t-Octylphenoxypolyethoxyethanol (Triton® X-100). Mouse Anti-poly ADP ribose (PAR) monoclonal antibody, goat antimouse immunoglobulin G (IgG)-horse radish peroxidase (HRP) conjugate and HRP substrate are added according to the manufacture's specifications to generate a colorimetric signal proportional to PARP catalytic activity. An IC50 for the test compound is calculated from the equation Absorbance=(Amax−background)/(1+([cmpd]/IC50)^n)+background fit to the 12 point test compound concentration gradient via nonlinear least squares.

SMILES | IC50 [2] | PF50 [1]
CC(C)N1CC(=O)Nc2cc(CN3CC=C(c4ccc(Cl)cc4)CC3)cnc21 [Compound 94, 7-((4-(4-chlorophenyl)-5,6-dihydropyridin-1(2H)-yl)methyl)-4-isopropyl-3,4-dihydropyrido[2,3-b]pyrazin-2(1H)-one] | ≥ 50.1 nM | ≧0
CC(C)N1CC(=O)Nc2cc(CN3CCN(c4ccc(Cl)cc4)CC3)cnc21 [Compound 95, 7-((4-(4-chlorophenyl)piperazin-1-yl)methyl)-4-isopropyl-3,4-dihydropyrido[2,3-b]pyrazin-2(1H)-one] | ≥ 50.1 nM | ≧0
O=C1CC2CCCN2c2ncc(CN3CCN(c4ccc(Cl)cc4)CC3)cc2N1 (centres unmarked) [Compound 104, 3-((4-(4-chlorophenyl)piperazin-1-yl)methyl)-7a,8,9,10-tetrahydro-5H-pyrido[3,2-b]pyrrolo[1,2-d][1,4]diazepin-6(7H)-one] | ≥ 50.1 nM | ≧0
CCNC(=O)c1ccc(N2CCN(Cc3cnc4c(c3)NC(=O)[C@@H]3CCCCN43)CC2)c(F)c1 [Compound 109, (S)—N-ethyl-3-fluoro-4-(4-((6-oxo-6,6a,7,8,9,10-hexahydro-5H-dipyrido[1,2-a:3′,2′-e]pyrazin-3-yl)methyl)piperazin-1-yl)benzamide] | 15.8 to 39.8 nM | >2000
CCNC(=O)c1ccc(N2CCN(Cc3cnc4c(c3)NC(=O)[C@@H]3CCCCN43)CC2)c(Cl)c1 [Compound 110, (S)-3-chloro-N-ethyl-4-(4-((6-oxo-6,6a,7,8,9,10-hexahydro-5H-dipyrido[1,2-a:3′,2′-e]pyrazin-3-yl)methyl)piperazin-1-yl)benzamide] | 15.8 to 39.8 nM | >5000
CNC(=O)c1ccc(N2CCN(Cc3cnc4c(c3)NC(=O)[C@@H]3CCCCN43)CC2)c(Cl)c1 [Compound 111, (S)-3-chloro-N-methyl-4-(4-((6-oxo-6,6a,7,8,9,10-hexahydro-5H-dipyrido[1,2-a:3′,2′-e]pyrazin-3-yl)methyl)piperazin-1-yl)benzamide] | 15.8 to 39.8 nM | >5000
CNC(=O)c1ccc(N2CCN(Cc3cnc4c(c3)NC(=O)[C@@H]3CCCCN43)CC2)c(C)c1 [Compound 113, (S)—N,3-dimethyl-4-(4-((6-oxo-6,6a,7,8,9,10-hexahydro-5H-dipyrido[1,2-a:3′,2′-e]pyrazin-3-yl)methyl)piperazin-1-yl)benzamide] | ≥ 50.1 nM | >2000
CCNC(=O)c1ccc(N2CCN(Cc3cnc4c(c3)NC(=O)[C@@H]3CCCCN43)CC2)c(C)c1 [Compound 114, (S)—N-ethyl-3-methyl-4-(4-((6-oxo-6,6a,7,8,9,10-hexahydro-5H-dipyrido[1,2-a:3′,2′-e]pyrazin-3-yl)methyl)piperazin-1-yl)benzamide] | ≥ 50.1 nM | >2000
Cc1cc(C(=O)NC2CC2)ccc1N1CCN(Cc2cnc3c(c2)NC(=O)[C@@H]2CCCCN32)CC1 [Compound 115, (S)—N-cyclopropyl-3-methyl-4-(4-((6-oxo-6,6a,7,8,9,10-hexahydro-5H-dipyrido[1,2-a:3′,2′-e]pyrazin-3-yl)methyl)piperazin-1-yl)benzamide] | 15.8 to 39.8 nM | >2000
O=C(NC1CC1)c1ccc(N2CCN(Cc3cnc4c(c3)NC(=O)[C@@H]3CCCCN43)CC2)c(Cl)c1 [Compound 117, (S)-3-chloro-N-cyclopropyl-4-(4-((6-oxo-6,6a,7,8,9,10-hexahydro-5H-dipyrido[1,2-a:3′,2′-e]pyrazin-3-yl)methyl)piperazin-1-yl)benzamide] | 15.8 to 39.8 nM | >5000
CC1CN(c2ccccn2)CCN1Cc1cnc2c(c1)NC(=O)[C@@H]1CCCN21 (stereo partly drawn) [Compound 120, (6aS)-3-((2-methyl-4-(pyridin-2-yl)piperazin-1-yl)methyl)-6a,7,8,9-tetrahydropyrido[3,2-e]pyrrolo[1,2-a]pyrazin-6(5H)-one] | ≥ 50.1 nM | ≧0
O=C1Nc2cc(CC3CCN(c4ccc(Cl)cc4)CC3)cnc2N2CCC[C@@H]12 [Compound 122, (S)-3-((1-(4-chlorophenyl)piperidin-4-yl)methyl)-6a,7,8,9-tetrahydropyrido[3,2-e]pyrrolo[1,2-a]pyrazin-6(5H)-one] | ≥ 50.1 nM | ≧0
N#Cc1ccc(N2CCN(Cc3cnc4c(c3)NC(=O)[C@@H]3CCCN43)CC2)cn1 [Compound 123, (S)-5-(4-((6-oxo-5,6,6a,7,8,9-hexahydropyrido[3,2-e]pyrrolo[1,2-a]pyrazin-3-yl)methyl)piperazin-1-yl)picolinonitrile] | 15.8 to 39.8 nM | >10

Further lines, with some results ahead:

IC50 [2] | SMILES | PF50 [1]
15.8 to 39.8 nM | CNC(=O)c1ccc(N2CCN(Cc3cnc4c(c3)NC(=O)[C@@H]3CCCCN43)CC2)nc1 [Compound 77, (S)—N-methyl-6-(4-((6-oxo-6,6a,7,8,9,10-hexahydro-5H-dipyrido[1,2-a:3′,2′-e]pyrazin-3-yl)methyl)piperazin-1-yl)nicotinamide] | >10
15.8 to 39.8 nM | O=C1Nc2cc(CN3CCN(c4ccc(Cl)cc4)CC3)cnc2N2CCSCC12 (centres unmarked) [Compound 87, 3-((4-(4-chlorophenyl)piperazin-1-yl)methyl)-6a,7,9,10-tetrahydropyrido[3,2-e][1,4]thiazino[4,3-a]pyrazin-6(5H)-one] | >10
≤ 12.6 nM | N#Cc1ccc(N2CCN(Cc3cnc4c(c3)NC(=O)[C@@H]3CSCCN43)CC2)cc1 [Compound 90, (R)-4-(4-((6-oxo-5,6,6a,7,9,10-hexahydropyrido[3,2-e][1,4]thiazino[4,3-a]pyrazin-3-yl)methyl)piperazin-1-yl)benzonitrile] | >10
15.8 to 39.8 nM | N#Cc1ccc(N2CCN(Cc3cnc4c(c3)NC(=O)[C@@H]3CCN43)CC2)cc1 [Compound 102, (S)-4-(4-((6-oxo-6,6a,7,8-tetrahydro-5H-azeto[1,2-a]pyrido[3,2-e]pyrazin-3-yl)methyl)piperazin-1-yl)benzonitrile] | ≧0
15.8 to 39.8 nM | N#Cc1ccc(N2CCN(Cc3cnc4c(c3)NC(=O)CC3CCCN43)CC2)cc1 (centres unmarked) [Compound 103, 4-(4-((6-oxo-6,7,7a,8,9,10-hexahydro-5H-pyrido[3,2-b]pyrrolo[1,2-d][1,4]diazepin-3-yl)methyl)piperazin-1-yl)benzonitrile] | ≧0
15.8 to 39.8 nM | C[C@H]1CN(c2ccc(C#N)cc2)CCN1Cc1cnc2c(c1)NC(=O)[C@@H]1CSCCN21 [Compound 105, 4-((S)-3-methyl-4-(((R)-6-oxo-5,6,6a,7,9,10-hexahydropyrido[3,2-e][1,4]thiazino[4,3-a]pyrazin-3-yl)methyl)piperazin-1-yl)benzonitrile] | >10
≤ 12.6 nM | CCNC(=O)c1ccc(N2CCN(Cc3cnc4c(c3)NC(=O)[C@@H]3CSCCN43)CC2)c(F)c1 [Compound 106, (R)—N-ethyl-3-fluoro-4-(4-((6-oxo-5,6,6a,7,9,10-hexahydropyrido[3,2-e][1,4]thiazino[4,3-a]pyrazin-3-yl)methyl)piperazin-1-yl)benzamide] | >5000
15.8 to 39.8 nM | CCNC(=O)c1ccc(N2CCN(Cc3cnc4c(c3)NC(=O)[C@@H]3CSCCN43)CC2)c(Cl)c1 [Compound 107, (R)-3-chloro-N-ethyl-4-(4-((6-oxo-5,6,6a,7,9,10-hexahydropyrido[3,2-e][1,4]thiazino[4,3-a]pyrazin-3-yl)methyl)piperazin-1-yl)benzamide] | >2000
≤ 12.6 nM | CNC(=O)c1ccc(N2CCN(Cc3cnc4c(c3)NC(=O)[C@@H]3CSCCN43)CC2)c(Cl)c1 [Compound 108, (R)-3-chloro-N-methyl-4-(4-((6-oxo-5,6,6a,7,9,10-hexahydropyrido[3,2-e][1,4]thiazino[4,3-a]pyrazin-3-yl)methyl)piperazin-1-yl)benzamide] | >500
≤ 12.6 nM | CNC(=O)c1ccc(N2CCN(Cc3cnc4c(c3)NC(=O)[C@@H]3CCCCN43)CC2)c(F)c1 [Compound 112, (S)-3-fluoro-N-methyl-4-(4-((6-oxo-6,6a,7,8,9,10-hexahydro-5H-dipyrido[1,2-a:3′,2′-e]pyrazin-3-yl)methyl)piperazin-1-yl)benzamide] | >10
≤ 12.6 nM | O=C(NC1CC1)c1ccc(N2CCN(Cc3cnc4c(c3)NC(=O)[C@@H]3CCCCN43)CC2)c(F)c1 [Compound 116, (S)—N-cyclopropyl-3-fluoro-4-(4-((6-oxo-6,6a,7,8,9,10-hexahydro-5H-dipyrido[1,2-a:3′,2′-e]pyrazin-3-yl)methyl)piperazin-1-yl)benzamide] | >5000
≤ 12.6 nM | COc1cc(C#N)ccc1N1CCN(Cc2cnc3c(c2)NC(=O)[C@@H]2CCCCN32)CC1 [Compound 118, (S)-3-methoxy-4-(4-((6-oxo-6,6a,7,8,9,10-hexahydro-5H-dipyrido[1,2-a:3′,2′-e]pyrazin-3-yl)methyl)piperazin-1-yl)benzonitrile] | >5000
